{"source": "patent US12508266B2", "about": "(priority 2010, dated 2025)", "key": {"[1]": {"system": "Adenovirus type 165089/Chicago", "type": "cell-based, Adenovirus (AV-1) type 1"}, "[2]": {"system": "Adenovirus type 165089/Chicago", "type": "cell-based, Adenovirus (AV-1) type 1", "remark": "listed apart in the source"}, "Dengue 2 New Guinea C [3]": {"system": "Dengue 2 New Guinea C", "type": "cell-based, Dengue virus 2"}, "Dengue 2 New Guinea C [4]": {"system": "Dengue 2 New Guinea C", "type": "cell-based, Dengue virus 2", "remark": "listed apart in the source"}, "[5]": {"system": "Influenza A H1N1 CA/04/2009 (Pandemic H1N1)", "type": "cell-based"}, "[6]": {"system": "Influenza A H1N1 CA/04/2009 (Pandemic H1N1)", "type": "cell-based", "remark": "listed apart in the source"}, "[7]": {"system": "Influenza A H3N2 Brisbane/10/2007", "type": "cell-based"}, "[8]": {"system": "Influenza A H3N2 Brisbane/10/2007", "type": "cell-based", "remark": "listed apart in the source"}, "[9]": {"system": "Influenza A H5N1 VN/1203/2004 Hybrid (on H1N1 backbone)", "type": "cell-based"}, "[10]": {"system": "Influenza A H5N1 VN/1203/2004 Hybrid (on H1N1 backbone)", "type": "cell-based", "remark": "listed apart in the source"}, "Influenza B Florida [11]": {"system": "Influenza B Florida", "type": "cell-based"}, "Influenza B Florida [12]": {"system": "Influenza B Florida", "assay": "microbe, parasite or virus in culture", "type": "cell-based"}, "Junin Candid 1 [13]": {"system": "Junin Candid 1", "type": "cell-based, Junin virus"}, "Junin Candid 1 [14]": {"system": "Junin Candid 1", "type": "cell-based, Junin virus", "remark": "listed apart in the source"}, "[15]": {"system": "Measles virus (MV), strain Chicago", "assay": "Visual CPE Assay", "type": "cell-based", "conditions": "Vero 76 cells"}, "[16]": {"system": "Measles virus (MV), strain Chicago", "assay": "Neutral Red Uptake Assay", "type": "cell-based", "conditions": "Vero 76 cells"}, "Parainfluenza 3 14702 [17]": {"system": "Parainfluenza 3 14702", "type": "cell-based, Parainfluenza virus type 3"}, "Parainfluenza 3 14702 [18]": {"system": "Parainfluenza 3 14702", "type": "cell-based, Parainfluenza virus type 3", "remark": "listed apart in the source"}, "Pichinde [19]": {"system": "Pichinde", "type": "cell-based"}, "Pichinde [20]": {"system": "Pichinde", "type": "cell-based", "remark": "listed apart in the source"}, "Punta Toro A2 [21]": {"system": "Punta Toro A2", "type": "cell-based, Punta Toro virus"}, "Punta Toro A2 [22]": {"system": "Punta Toro A2", "type": "cell-based, Punta Toro virus", "remark": "listed apart in the source"}, "Respiratory Syncytial A2 [23]": {"system": "Respiratory Syncytial A2", "type": "cell-based, Respiratory syncytial virus"}, "Respiratory Syncytial A2 [24]": {"system": "Respiratory Syncytial A2", "type": "cell-based, Respiratory syncytial virus", "remark": "listed apart in the source"}, "Rhinovirus 2 HGP [25]": {"system": "Rhinovirus 2 HGP", "type": "cell-based"}, "Rhinovirus 2 HGP [26]": {"system": "Rhinovirus 2 HGP", "type": "cell-based", "remark": "listed apart in the source"}, "Rift Valley Fever MP-12 [27]": {"system": "Rift Valley Fever MP-12", "type": "cell-based, Rift Valley fever virus"}, "Rift Valley Fever MP-12 [28]": {"system": "Rift Valley Fever MP-12", "type": "cell-based, Rift Valley fever virus", "remark": "listed apart in the source"}, "SARS-CoV Urbani [29]": {"system": "SARS-CoV Urbani", "type": "cell-based, SARS corona virus"}, "SARS-CoV Urbani [30]": {"system": "SARS-CoV Urbani", "type": "cell-based, SARS corona virus", "remark": "listed apart in the source"}, "Tacaribe TRVL 11573 [31]": {"system": "Tacaribe TRVL 11573", "type": "cell-based"}, "Tacaribe TRVL 11573 [32]": {"system": "Tacaribe TRVL 11573", "type": "cell-based", "remark": "listed apart in the source"}, "[33]": {"system": "Venezuelan Equine Encephalitis TC83", "type": "cell-based, Venezuelan equine encephalitis virus"}, "[34]": {"system": "Venezuelan Equine Encephalitis TC83", "type": "cell-based, Venezuelan equine encephalitis virus", "remark": "listed apart in the source"}, "West Nile [35]": {"system": "West Nile", "type": "cell-based, West Nile virus"}, "West Nile [36]": {"system": "West Nile", "type": "cell-based, West Nile virus", "remark": "listed apart in the source"}, "Yellow Fever 17D [37]": {"system": "Yellow Fever 17D", "type": "cell-based, Yellow fever virus"}, "Yellow Fever 17D [38]": {"system": "Yellow Fever 17D", "type": "cell-based, Yellow fever virus", "remark": "listed apart in the source"}, "[39]": {"system": "Measles virus (MV), strain Chicago", "assay": "Virus Yield Reduction Assay", "type": "cell-based", "conditions": "Vero-76 cells, one log 10 drop in virus produced"}, "[40]": {"system": "Marburg, Junin Candid 1, Pichinde, Chikungunya 181/25 and Vaccinia NYCBH", "assay": "organism not typed", "type": "cell-based", "conditions": "read-out: EC50 values, range over several viruses"}, "[41]": {"system": "H3N2 virus (A/Victoria/3/75)", "parameters": "species or system Balb/C mice", "conditions": "mouse, in vivo, po"}, "[42]": {"system": "Yellow fever virus (Jimenez strain)", "parameters": "species or system Syrian golden hamsters", "conditions": "hamster, in vivo"}, "MA-104 cells [43]": {"system": "MA-104 cells", "conditions": "African green monkey"}, "MA-104 cells [44]": {"system": "MA-104 cells", "conditions": "African green monkey", "remark": "listed apart in the source"}, "in vitro [45]": {"assay": "in vitro", "conditions": "human"}, "in vitro [46]": {"assay": "in vitro", "conditions": "human", "remark": "listed apart in the source"}, "in vitro [47]": {"assay": "in vitro", "conditions": "African green monkey, Visual CPE Assay"}, "in vitro [48]": {"assay": "in vitro", "conditions": "African green monkey"}, "in vitro [49]": {"assay": "in vitro", "conditions": "human", "remark": "listed apart in the source"}, "in vitro [50]": {"assay": "in vitro", "conditions": "human", "remark": "listed apart in the source"}}, "data": [{"smiles": "Nc1ncnc2c([C@@H]3N[C@H](CO)[C@@H](O)[C@H]3O)c[nH]c12", "note": "[Compound 1, (2S,3S,4R,5R)-2-(4-Amino-5H-pyrrolo[3,2-d]pyrimidin-7-yl)-5-(hydroxymethyl) pyrrolidine-3,4-diol]", "values": [{"measurement": "SI Visual CPE Assay", "setting": "[1]", "value": ">2.6"}, {"measurement": "SI Neutral Red Uptake Assay", "setting": "[2]", "value": ">2.3"}, {"measurement": "SI Visual CPE Assay", "setting": "Dengue 2 New Guinea C [3]", "value": 25}, {"measurement": "SI Neutral Red Uptake Assay", "setting": "Dengue 2 New Guinea C [4]", "value": 26}, {"measurement": "SI Visual CPE Assay", "setting": "[5]", "value": 120}, {"measurement": "SI Neutral Red Uptake Assay", "setting": "[6]", "value": 120}, {"measurement": "SI Visual CPE Assay", "setting": "[7]", "value": 140}, {"measurement": "SI Neutral Red Uptake Assay", "setting": "[8]", "value": 79}, {"measurement": "SI Visual CPE Assay", "setting": "[9]", "value": ">1600"}, {"measurement": "SI Neutral Red Uptake Assay", "setting": "[10]", "value": 130}, {"measurement": "SI Visual CPE Assay", "setting": "Influenza B Florida [11]", "value": 290}, {"measurement": "SI Neutral Red Uptake Assay", "setting": "Influenza B Florida [12]", "value": 38}, {"measurement": "EC50", "setting": "Influenza B Florida [12]; Influenza B virus", "value": 1.8, "unit": "µg/mL"}, {"measurement": "SI Visual CPE Assay", "setting": "Junin Candid 1 [13]", "value": ">17"}, {"measurement": "SI Neutral Red Uptake Assay", "setting": "Junin Candid 1 [14]", "value": 14}, {"measurement": "SI Visual CPE Assay", "setting": "[15]", "value": ">180"}, {"measurement": "SI Neutral Red Uptake Assay", "setting": "[16]", "value": ">71"}, {"measurement": "SI Visual CPE Assay", "setting": "Parainfluenza 3 14702 [17]", "value": 7.1}, {"measurement": "SI Neutral Red Uptake Assay", "setting": "Parainfluenza 3 14702 [18]", "value": 52}, {"measurement": "SI Visual CPE Assay", "setting": "Pichinde [19]", "value": ">8.2"}, {"measurement": "SI Neutral Red Uptake Assay", "setting": "Pichinde [20]", "value": 6.7}, {"measurement": "SI Visual CPE Assay", "setting": "Punta Toro A2 [21]", "value": ">1.6"}, {"measurement": "SI Neutral Red Uptake Assay", "setting": "Punta Toro A2 [22]", "value": 0}, {"measurement": "SI Visual CPE Assay", "setting": "Respiratory Syncytial A2 [23]", "value": 0}, {"measurement": "SI Neutral Red Uptake Assay", "setting": "Respiratory Syncytial A2 [24]", "value": 0}, {"measurement": "SI Visual CPE Assay", "setting": "Rhinovirus 2 HGP [25]", "value": ">1.8"}, {"measurement": "SI Neutral Red Uptake Assay", "setting": "Rhinovirus 2 HGP [26]", "value": ">1.8"}, {"measurement": "SI Visual CPE Assay", "setting": "Rift Valley Fever MP-12 [27]", "value": 9.1}, {"measurement": "SI Neutral Red Uptake Assay", "setting": "Rift Valley Fever MP-12 [28]", "value": 6.6}, {"measurement": "SI Visual CPE Assay", "setting": "SARS-CoV Urbani [29]", "value": ">7.1"}, {"measurement": "SI Neutral Red Uptake Assay", "setting": "SARS-CoV Urbani [30]", "value": ">6.3"}, {"measurement": "SI Visual CPE Assay", "setting": "Tacaribe TRVL 11573 [31]", "value": 4.2}, {"measurement": "SI Neutral Red Uptake Assay", "setting": "Tacaribe TRVL 11573 [32]", "value": 2}, {"measurement": "SI Visual CPE Assay", "setting": "[33]", "value": 2.2}, {"measurement": "SI Neutral Red Uptake Assay", "setting": "[34]", "value": 1.2}, {"measurement": "SI Visual CPE Assay", "setting": "West Nile [35]", "value": 0}, {"measurement": "SI Neutral Red Uptake Assay", "setting": "West Nile [36]", "value": 2.8}, {"measurement": "SI Visual CPE Assay", "setting": "Yellow Fever 17D [37]", "value": 43}, {"measurement": "SI Neutral Red Uptake Assay", "setting": "Yellow Fever 17D [38]", "value": 38}, {"measurement": "EC90 virus yield reduction", "setting": "[39]", "value": 0.37, "unit": "µg/mL"}, {"measurement": "EC50", "setting": "[40]", "value": "≥ 10", "unit": "µg/mL"}, {"measurement": "Mean weight change (grams ± SEM) Day 9", "setting": "[41]", "value": "0.01 ± 0.27", "unit": "grams"}, {"measurement": "weight change", "setting": "[42]", "value": "weight gain over placebo and ribavirin administered pre-infection"}, {"measurement": "IC50 Visual CPE Assay", "setting": "MA-104 cells [43]", "value": ">100", "unit": "µg/mL"}, {"measurement": "IC50 Neutral Red Uptake Assay", "setting": "MA-104 cells [44]", "value": ">100", "unit": "µg/mL"}, {"measurement": "CC50", "setting": "in vitro [45]", "value": "> 100", "unit": "µg/mL"}, {"measurement": "CC50", "setting": "in vitro [46]", "value": "> 100", "unit": "µg/mL"}, {"measurement": "CC50", "setting": "in vitro [47]", "value": 100, "unit": "µg/mL"}, {"measurement": "CC50", "setting": "in vitro [48]", "value": 52, "unit": "µg/mL"}, {"measurement": "CC50", "setting": "in vitro [49]", "value": "> 100", "unit": "µg/mL"}, {"measurement": "CC50", "setting": "in vitro [50]", "value": "> 100", "unit": "µg/mL"}]}]}
